Source: patent US20240190880A1 (THE REGENTS OF THE UNIVERSITY OF MICHIGAN, priority 2021, published 2024)

biological target: T1, ER (Homo sapiens, UniProt P03372); experiment: ER degradation activity, in-cell western blot analysis in T47D cells; format: cell-based; conditions: 16 hours, Table A does not say which cell line (T47D or MCF7), read-out: Potency (DC50)
T1 construct: host or cells: T47D and MCF7 human breast cancer cells
T1 sequence (P03372 1-595): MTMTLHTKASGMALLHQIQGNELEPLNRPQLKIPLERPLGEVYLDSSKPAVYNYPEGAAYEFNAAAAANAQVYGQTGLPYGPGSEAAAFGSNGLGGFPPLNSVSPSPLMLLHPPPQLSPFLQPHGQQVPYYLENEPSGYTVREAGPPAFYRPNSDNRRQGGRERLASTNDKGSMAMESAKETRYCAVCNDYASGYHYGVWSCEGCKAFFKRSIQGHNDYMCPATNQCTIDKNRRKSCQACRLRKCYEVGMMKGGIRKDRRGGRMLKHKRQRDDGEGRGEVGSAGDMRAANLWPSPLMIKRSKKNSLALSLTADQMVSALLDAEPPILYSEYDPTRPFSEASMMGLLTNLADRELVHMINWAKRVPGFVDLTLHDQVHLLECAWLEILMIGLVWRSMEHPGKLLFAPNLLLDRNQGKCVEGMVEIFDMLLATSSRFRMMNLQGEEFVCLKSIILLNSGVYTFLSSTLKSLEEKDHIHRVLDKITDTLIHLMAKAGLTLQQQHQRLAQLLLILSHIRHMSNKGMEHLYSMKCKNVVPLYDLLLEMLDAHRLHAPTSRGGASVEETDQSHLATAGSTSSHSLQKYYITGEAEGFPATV
Outline: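 T47D cells cultured in DMEM with 10% FBS, treated with compounds (final 0.5% DMSO) for 16 h. ER level measured by in-cell western with anti-rabbit-680/anti-mouse-800 near-infrared detection. Relative ER percentage calculated against untreated and DMSO-treated wells set as 100%.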

SMILES	DC50
C[C@@H]1Cc2cc(O)ccc2[C@@H](c2c(F)cc(N3CCC4(CCN(C(=O)CN5Cc6cc7c(cc6C5)C(=O)N(C5CCC(=O)NC5=O)C7=O)CC4)CC3)cc2F)N1CC(F)(F)F (stereo partly drawn) [E 225, 6-(2-(9-(3,5-difluoro-4-((1S,3R)-6-hydroxy-3-methyl-2-(2,2,2-trifluoroethyl)-1,2,3,4-tetrahydroisoquinolin-1-yl)phenyl)-3,9-diazaspiro[5.5]undecan-3-yl)-2-oxoethyl)-2-(2,6-dioxopiperidin-3-yl)-6,7-dihydropyrrolo[3,4-f]isoindole-1,3(2H,5H)-dione]	> 0.1 µM
C[C@@H]1Cc2c([nH]c3ccccc23)[C@@H](c2c(F)cc(N3CCC(N4CCC(CN5Cc6cc7c(cc6C5)C(=O)N(C5CCC(=O)NC5=O)C7=O)CC4)CC3)cc2F)N1CC(F)F (stereo partly drawn) [E 118, 6-((1′-(4-((1R,3R)-2-(2,2-difluoroethyl)-3-methyl-2,3,4,9-tetrahydro-1H-pyrido[3,4-b]indol-1-yl)-3,5-difluorophenyl)-[1,4′-bipiperidin]-4-yl)methyl)-2-(2,6-dioxopiperidin-3-yl)-6,7-dihydropyrrolo[3,4-f]isoindole-1,3(2H,5H)-dione]	> 0.1 µM
C[C@@H]1Cc2c([nH]c3ccccc23)[C@@H](c2c(F)cc(N3CCC4(CCN(CC(=O)N5Cc6cc7c(cc6C5)C(=O)N(C5CCC(=O)NC5=O)C7)C4)C3)cc2F)N1CC(F)F (stereo partly drawn) [E 75, 3-(6-(2-(7-(4-((1R,3R)-2-(2,2-difluoroethyl)-3-methyl-2,3,4,9-tetrahydro-1H-pyrido[3,4-b]indol-1-yl)-3,5-difluorophenyl)-2,7-diazaspiro[4.4]nonan-2-yl)acetyl)-1-oxo-3,5,6,7-tetrahydropyrrolo[3,4-f]isoindol-2(1H)-yl)piperidine-2,6-dione]	0.01 to 0.1 µM
O=C1CCC(N2C(=O)c3cc4c(cc3C2=O)CCN(CC(=O)N2CC3(CCN(c5ccc([C@@H]6c7ccc(O)cc7CC[C@@H]6c6ccccc6)cc5)CC3)C2)CC4)C(=O)N1 (stereo partly drawn) [E 169, 2-(2,6-dioxopiperidin-3-yl)-7-(2-(7-(4-((1R,2S)-6-hydroxy-2-phenyl-1,2,3,4-tetrahydronaphthalen-1-yl)phenyl)-2,7-diazaspiro[3.5]nonan-2-yl)-2-oxoethyl)-6,7,8,9-tetrahydroazepino[4,5-f]isoindole-1,3(2H,5H)-dione]	> 0.1 µM
O=C1CCC(N2C(=O)c3cc4c(cc3C2=O)CN(CC2CCN(C(=O)C3(F)CN(c5ccc([C@@H]6c7ccc(O)cc7CC[C@@H]6c6ccccc6)cc5)C3)CC2)C4)C(=O)N1 (stereo partly drawn) [E 203, 2-(2,6-dioxopiperidin-3-yl)-6-((1-(3-fluoro-1-(4-((1R,2S)-6-hydroxy-2-phenyl-1,2,3,4-tetrahydronaphthalen-1-yl)phenyl)azetidine-3-carbonyl)piperidin-4-yl)methyl)-6,7-dihydropyrrolo[3,4-f]isoindole-1,3(2H,5H)-dione]	> 0.1 µM
C[C@@H]1Cc2c([nH]c3ccccc23)[C@@H](c2ccc(N3CCC4(CCN(C(=O)CN5Cc6cc7c(cc6C5)C(=O)N(C5CCC(=O)NC5=O)C7=O)CC4)CC3)cc2F)N1CC(F)F (stereo partly drawn) [E 293, 6-(2-(9-(4-((1R,3R)-2-(2,2-difluoroethyl)-3-methyl-2,3,4,9-tetrahydro-1H-pyrido[3,4-b]indol-1-yl)-3-fluorophenyl)-3,9-diazaspiro[5.5]undecan-3-yl)-2-oxoethyl)-2-(2,6-dioxopiperidin-3-yl)-6,7-dihydropyrrolo[3,4-f]isoindole-1,3(2H,5H)-dione]	0.01 to 0.1 µM
C[C@@H]1Cc2c([nH]c3ccccc23)[C@@H](c2c(F)cc(-c3ccc(C(=O)N4CCC(N5Cc6cc7c(cc6C5)C(=O)N(C5CCC(=O)NC5=O)C7=O)CC4)nn3)cc2F)N1CC(F)F (stereo partly drawn) [E 345, 6-(1-(6-(4-((1R,3R)-2-(2,2-difluoroethyl)-3-methyl-2,3,4,9-tetrahydro-1H-pyrido[3,4-b]indol-1-yl)-3,5-difluorophenyl)pyridazine-3-carbonyl)piperidin-4-yl)-2-(2,6-dioxopiperidin-3-yl)-6,7-dihydropyrrolo[3,4-f]isoindole-1,3(2H,5H)-dione]	0.01 to 0.1 µM
O=C1CCC(N2C(=O)c3cc4c(cc3C2=O)CN(C2CCN(CC3CCN(c5ccc([C@@H]6c7ccc(O)cc7CC[C@@H]6c6ccccc6)cc5)CC3)CC2)C4)C(=O)N1 (stereo partly drawn) [E 271, 2-(2,6-dioxopiperidin-3-yl)-6-(1-((1-(4-((1R,2S)-6-hydroxy-2-phenyl-1,2,3,4-tetrahydronaphthalen-1-yl)phenyl)piperidin-4-yl)methyl)piperidin-4-yl)-6,7-dihydropyrrolo[3,4-f]isoindole-1,3(2H,5H)-dione]	< 0.01 µM
C[C@@H]1Cc2c([nH]c3ccccc23)[C@@H](c2c(F)cc(-c3ccc(C(=O)N4CCC(N5Cc6cc7c(cc6C5)C(=O)N(C5CCC(=O)NC5=O)C7=O)CC4)nc3)cc2F)N1CC(F)F (stereo partly drawn) [E 325, 6-(1-(5-(4-((1R,3R)-2-(2,2-difluoroethyl)-3-methyl-2,3,4,9-tetrahydro-1H-pyrido[3,4-b]indol-1-yl)-3,5-difluorophenyl)picolinoyl)piperidin-4-yl)-2-(2,6-dioxopiperidin-3-yl)-6,7-dihydropyrrolo[3,4-f]isoindole-1,3(2H,5H)-dione]	0.01 to 0.1 µM
C[C@@H]1Cc2c([nH]c3ccccc23)[C@@H](c2c(F)cc(N3CC4(CN(CC(=O)N5Cc6cc7c(cc6C5)C(=O)N(C5CCC(=O)NC5=O)C7)C4)C3)cc2F)N1CC(F)F (stereo partly drawn) [E 65, 3-(6-(2-(6-(4-((1R,3R)-2-(2,2-difluoroethyl)-3-methyl-2,3,4,9-tetrahydro-1H-pyrido[3,4-b]indol-1-yl)-3,5-difluorophenyl)-2,6-diazaspiro[3.3]heptan-2-yl)acetyl)-1-oxo-3,5,6,7-tetrahydropyrrolo[3,4-f]isoindol-2(1H)-yl)piperidine-2,6-dione]	< 0.01 µM
O=C1CCC(N2C(=O)c3cc4c(cc3C2=O)CN(C(=O)C2CCC(CN3CCN(c5ccc([C@@H]6c7ccc(O)cc7CC[C@@H]6c6ccccc6)cc5)CC3)CC2)C4)C(=O)N1 (stereo partly drawn) [E 365, 2-(2,6-dioxopiperidin-3-yl)-6-(4-((4-(4-((1R,2S)-6-hydroxy-2-phenyl-1,2,3,4-tetrahydronaphthalen-1-yl)phenyl)piperazin-1-yl)methyl)cyclohexane-1-carbonyl)-6,7-dihydropyrrolo[3,4-f]isoindole-1,3(2H,5H)-dione]	> 0.1 µM
C[C@@H]1Cc2c([nH]c3ccccc23)[C@@H](c2c(F)cc(N3CCC(N4CC(CN5Cc6cc7c(cc6C5)C(=O)N(C5CCC(=O)NC5=O)C7=O)C4)CC3)cc2F)N1CC(F)F (stereo partly drawn) [E 117, 6-((1-(1-(4-((1R,3R)-2-(2,2-difluoroethyl)-3-methyl-2,3,4,9-tetrahydro-1H-pyrido[3,4-b]indol-1-yl)-3,5-difluorophenyl)piperidin-4-yl)azetidin-3-yl)methyl)-2-(2,6-dioxopiperidin-3-yl)-6,7-dihydropyrrolo[3,4-f]isoindole-1,3(2H,5H)-dione]	0.01 to 0.1 µM
C[C@@H]1Cc2c([nH]c3ccccc23)[C@@H](c2c(F)cc(-c3ccc(C(=O)N4CCC(N5Cc6cc7c(cc6C5)C(=O)N(C5CCC(=O)NC5=O)C7=O)CC4)cc3)cc2F)N1CC(F)F (stereo partly drawn) [E 347, 6-(1-(4′-((1R,3R)-2-(2,2-difluoroethyl)-3-methyl-2,3,4,9-tetrahydro-1H-pyrido[3,4-b]indol-1-yl)-3′,5′-difluoro-[1,1′-biphenyl]-4-carbonyl)piperidin-4-yl)-2-(2,6-dioxopiperidin-3-yl)-6,7-dihydropyrrolo[3,4-f]isoindole-1,3(2H,5H)-dione]	< 0.01 µM
C[C@@H]1Cc2c([nH]c3ccccc23)[C@@H](c2ccc(N3CCC(CN4CCC(N5Cc6cc7c(cc6C5)C(=O)N(C5CCC(=O)NC5=O)C7=O)CC4)CC3)cc2)N1CC(F)F (stereo partly drawn) [E 264, 6-(1-((1-(4-((1R,3R)-2-(2,2-difluoroethyl)-3-methyl-2,3,4,9-tetrahydro-1H-pyrido[3,4-b]indol-1-yl)phenyl)piperidin-4-yl)methyl)piperidin-4-yl)-2-(2,6-dioxopiperidin-3-yl)-6,7-dihydropyrrolo[3,4-f]isoindole-1,3(2H,5H)-dione]	0.01 to 0.1 µM

same assay, conditions: compounds 16 hours, Table A does not say whether T47D or MCF7, read-out: Potency (DC50)

SMILES	DC50
O=C1CCC(N2Cc3cc4c(cc3C2=O)CN(C2CN(CC3CCN(c5ccc([C@@H]6c7ccc(O)cc7CC[C@@H]6c6ccccc6)cc5)CC3)C2)C4=O)C(=O)N1 (stereo partly drawn) [E 505, 2-(2,6-dioxopiperidin-3-yl)-6-(1-((1-(4-((1R,2S)-6-hydroxy-2-phenyl-1,2,3,4-tetrahydronaphthalen-1-yl)phenyl)piperidin-4-yl)methyl)azetidin-3-yl)-2,3,6,7-tetrahydropyrrolo[3,4-f]isoindole-1,5-dione]	> 0.1 µM
C[C@@H]1Cc2cc(O)ccc2[C@H](c2ccc(C(=O)N3CC4(CCN(C(=O)CN5Cc6cc7c(cc6C5)C(=O)N(C5CCC(=O)NC5=O)C7=O)CC4)C3)cc2)N1CC(F)F (stereo partly drawn) [E 460, 6-(2-(2-(4-((1S,3R)-2-(2,2-difluoroethyl)-6-hydroxy-3-methyl-1,2,3,4-tetrahydroisoquinolin-1-yl)benzoyl)-2,7-diazaspiro[3.5]nonan-7-yl)-2-oxoethyl)-2-(2,6-dioxopiperidin-3-yl)-6,7-dihydropyrrolo[3,4-f]isoindole-1,3(2H,5H)-dione]	0.01 to 0.1 µM
